# Results published in patent US9765089B2, “ACC inhibitors and uses thereof” (Gilead Apollo, LLC, priority 2013, dated 2017).
# System: ACC1
# Assay: not given
# Details: ACC1 isolated from rat, mouse, monkey and human; cited from earlier work
row,Molecule,IC50 [µM]
1,O=C(c1c2ccccc2cc2ccccc12)N1CCC(N2CCC[C@@H](C(=O)N3CCOCC3)C2)CC1 [CP-640186],~0.06

# Biological target: ACC2 (Homo sapiens, UniProt O00763)
# Assay: in vitro ACC2 inhibition assay (ADP-Glo)
# Assay type: biochemical
# Details: 5 nM ACC2, 20 μM ATP, 20 μM acetyl-CoA, 60 min room temperature, luminescence
# Protocol: In Vitro Acetyl-CoA Carboxylase (ACC) Inhibition Assay
# An exemplary procedure for the in vitro ACC inhibition assay, which can be used to determine the inhibitory action of compounds of the invention toward either ACCT or ACC2, follows. The ADP-Glo™ Kinase Assay kit from Promega is used. The ADP-Glo™ Kinase Assay is a luminescent ADP detection assay to measure enzymatic activity by quantifying the amount of ADP produced during an enzyme reaction. The assay is performed in two steps; first, after the enzyme reaction, an equal volume of ADP-Glo™ Reagent is added to terminate the reaction and deplete the remaining ATP. Second, the Kinase Detection Reagent is added to simultaneously convert ADP to ATP and allow the newly synthesized ATP to be measured using a luciferase/luciferin reaction. Luminescence can be correlated to ADP concentrations by using an ATP-to-ADP conversion curve. The detailed procedure is as follows. 50 μL of the compound being tested (600 uM in DMSO) is added to a 384-well dilution plate. The compound is diluted 1:3 in succession in DMSO for each row for 11 wells. […] is added to 384-well white Optiplate assay plate. 0.5 μL diluted compound solution in each column from step 2 is added to the assay plate, each row containing 2 replicates. For the last 2 rows, add 0.5 μL negative control (DMSO) in one row and 0.5 μL positive control (compound I-97) in the other. The plates are incubated at room temperature for 15 minutes. 5 μL substrate working solution is added to each well to initiate reaction. Final ACC2 reaction concentrations consist of: 5 nM ACC2, 20 μM ATP, 20 μM acetyl-CoA, 12 mM NaHCO3, 0.01% Brij35, 2 mM DTT, 5% DMSO, test compound concentrations: 30 μM, 10 μM, 3.33 μM, 1.11 μM, 0.37 μM, 0.123 μM, 0.0411 μM, 0.0137 μM, 0.00457 μM, 0.00152 μM, and 0.00051 μM. Plates are incubated at room temperature for 60 minutes. 10 μL ADP glo reagent is added. Plates are incubated at room temperature for 40 minutes. 20 μL kinase detection reagent is added. Plates are incubated at room temperature for 40 minutes, then read on a Perkin Elmer EnVision 2104 plate reader for luminescence as Relative Light Units (RLU).
# Data for each concentration, as well as the positive and negative controls are averaged, and the standard deviation calculated. Percent inhibition is calculated by the formula: 100×(average negative control−compound)/(average negative control−average positive control). The IC50 for each compound is calculated by fitting the data with a non-linear regression equation: Y=Bottom+(Top-Bottom)/(1+10^((Log IC50−X)*HillSlope)), where X is the log of compound concentration and Y is percent inhibition.
# The compound numbers correspond to the compound numbers in Table 1. Compounds having an activity designated as “AAA” provided an IC50≦0.1 μM; compounds having an activity designated as “AA” provided an IC50≦1 μM; compounds having an activity designated as “A” provided an IC50≦5 μM; compounds having an activity designated as “B” provided an IC50 of 5-20 μM; compounds having an activity designated as “C” provided an IC50 of 20-50 μM; and compounds having an activity designated as “D” provided an IC50≧50 μM
# Chain of ACC2 (Homo sapiens, UniProt O00763) (O00763 whole entry, species assumed): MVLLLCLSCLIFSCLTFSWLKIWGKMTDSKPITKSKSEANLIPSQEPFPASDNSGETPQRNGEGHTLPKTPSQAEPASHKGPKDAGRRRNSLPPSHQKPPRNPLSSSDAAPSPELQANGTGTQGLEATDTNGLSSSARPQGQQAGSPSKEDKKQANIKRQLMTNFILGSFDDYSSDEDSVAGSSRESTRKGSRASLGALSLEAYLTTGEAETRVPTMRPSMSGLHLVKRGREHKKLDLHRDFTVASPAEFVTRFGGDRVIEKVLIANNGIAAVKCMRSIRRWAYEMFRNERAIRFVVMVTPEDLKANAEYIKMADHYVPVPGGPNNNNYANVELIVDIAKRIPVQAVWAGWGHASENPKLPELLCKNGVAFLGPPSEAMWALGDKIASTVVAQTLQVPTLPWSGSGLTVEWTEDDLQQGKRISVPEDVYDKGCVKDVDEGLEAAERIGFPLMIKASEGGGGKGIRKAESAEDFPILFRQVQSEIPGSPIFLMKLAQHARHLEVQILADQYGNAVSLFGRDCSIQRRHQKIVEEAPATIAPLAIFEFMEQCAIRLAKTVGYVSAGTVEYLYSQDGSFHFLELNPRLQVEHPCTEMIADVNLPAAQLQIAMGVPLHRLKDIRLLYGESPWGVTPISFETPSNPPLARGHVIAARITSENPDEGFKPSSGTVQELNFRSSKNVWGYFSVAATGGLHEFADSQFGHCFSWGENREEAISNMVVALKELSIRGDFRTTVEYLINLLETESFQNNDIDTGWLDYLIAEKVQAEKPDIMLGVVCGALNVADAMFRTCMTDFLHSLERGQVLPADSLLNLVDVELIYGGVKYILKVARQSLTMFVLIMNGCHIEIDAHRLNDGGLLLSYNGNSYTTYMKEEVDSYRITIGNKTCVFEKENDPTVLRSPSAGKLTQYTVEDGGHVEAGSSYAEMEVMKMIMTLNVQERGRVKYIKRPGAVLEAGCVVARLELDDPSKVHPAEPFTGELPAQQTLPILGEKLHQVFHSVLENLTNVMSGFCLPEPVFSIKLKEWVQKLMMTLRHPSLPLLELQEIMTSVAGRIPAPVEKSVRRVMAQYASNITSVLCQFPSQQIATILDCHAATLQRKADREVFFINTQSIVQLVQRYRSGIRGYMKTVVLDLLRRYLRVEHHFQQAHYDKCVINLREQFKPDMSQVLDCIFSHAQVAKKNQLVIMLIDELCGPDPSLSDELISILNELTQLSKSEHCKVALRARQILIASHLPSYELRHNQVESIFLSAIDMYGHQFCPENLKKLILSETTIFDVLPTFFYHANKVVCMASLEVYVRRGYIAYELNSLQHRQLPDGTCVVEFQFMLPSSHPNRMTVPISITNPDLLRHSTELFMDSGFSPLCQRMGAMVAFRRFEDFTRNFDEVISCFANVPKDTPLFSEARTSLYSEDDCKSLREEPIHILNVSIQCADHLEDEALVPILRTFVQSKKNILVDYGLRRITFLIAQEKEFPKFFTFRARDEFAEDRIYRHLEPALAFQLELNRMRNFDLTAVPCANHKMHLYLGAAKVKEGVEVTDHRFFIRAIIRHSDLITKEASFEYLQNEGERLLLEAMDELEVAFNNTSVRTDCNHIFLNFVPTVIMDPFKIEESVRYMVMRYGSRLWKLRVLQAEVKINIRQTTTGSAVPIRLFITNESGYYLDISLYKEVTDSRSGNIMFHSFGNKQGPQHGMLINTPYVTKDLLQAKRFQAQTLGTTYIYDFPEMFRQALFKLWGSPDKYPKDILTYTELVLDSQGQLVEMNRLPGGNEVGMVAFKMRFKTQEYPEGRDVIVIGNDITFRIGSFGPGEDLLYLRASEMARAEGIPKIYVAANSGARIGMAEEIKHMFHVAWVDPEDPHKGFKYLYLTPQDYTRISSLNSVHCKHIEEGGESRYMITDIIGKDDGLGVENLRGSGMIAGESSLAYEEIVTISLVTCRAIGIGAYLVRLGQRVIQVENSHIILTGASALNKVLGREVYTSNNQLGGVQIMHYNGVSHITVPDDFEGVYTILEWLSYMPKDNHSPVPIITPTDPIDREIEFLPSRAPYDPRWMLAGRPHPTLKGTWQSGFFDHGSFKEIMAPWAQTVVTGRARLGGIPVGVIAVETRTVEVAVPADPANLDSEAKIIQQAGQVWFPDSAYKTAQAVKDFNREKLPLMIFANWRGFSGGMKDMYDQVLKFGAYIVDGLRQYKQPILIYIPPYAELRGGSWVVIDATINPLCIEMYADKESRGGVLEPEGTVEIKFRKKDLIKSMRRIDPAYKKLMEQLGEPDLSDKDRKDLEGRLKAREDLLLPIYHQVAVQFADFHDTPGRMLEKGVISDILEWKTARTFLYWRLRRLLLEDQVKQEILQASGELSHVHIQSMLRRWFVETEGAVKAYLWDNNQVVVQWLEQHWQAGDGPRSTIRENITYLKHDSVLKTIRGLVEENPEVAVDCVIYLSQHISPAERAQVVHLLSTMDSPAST
row,Molecule,IC50 [µM]
1,"2-(4-((R)-2-(5-fluoro-2-methoxyphenyl)-2-((tetrahydro-2H-pyran-4-yl)oxy)ethyl)-7-methyl-6-(oxazol-2-yl)-1,1-dioxido-3-oxo-3,4,4a,7a-tetra-hydro-2H-thieno[2,3-e][1,2,4]thiadiazin-2-yl)acetic acid [Compound I-41]",≤ 0.1
2,"COc1ccc(F)cc1[C@H](CN1C(=O)N(C(C)(C)C(=O)O)S(=O)(=O)c2c1sc(-c1ncco1)c2C)OC1CCOCC1 [Compound I-42, (R)-2-(4-(2-(5-fluoro-2-methoxyphenyl)-2-((tetrahydro-2H-pyran-4-yl)oxy)ethyl)-7-methyl-6-(oxazol-2-yl)-1,1-dioxido-3-oxo-3,4-dihydro-2H-thieno[2,3-e][1,2,4]thiadiazin-2-yl)-2-methylpropanoic acid]",≤ 5
3,"COc1ccccc1CCN1c2sc(-c3ncco3)c(C)c2C(=O)N(CC(=O)O)S1(=O)=O [Compound I-43, 2-(1-(2-methoxyphenethyl)-5-methyl-6-(oxazol-2-yl)-2,2-dioxido-4-oxo-1H-thieno[2,3-c][1,2,6]thiadiazin-3(4H)-yl)acetic acid]",5 to 20
4,"COc1ccccc1CCN1c2sc(-c3ncco3)c(C)c2C(=O)N(CC(N)=O)S1(=O)=O [Compound I-44, 2-(1-(2-methoxyphenethyl)-5-methyl-6-(oxazol-2-yl)-2,2-dioxido-4-oxo-1H-thieno[2,3-c][1,2,6]thiadiazin-3(4H)-yl)acetamide]",5 to 20
5,"COc1ccc(F)cc1[C@H](CN1C(=O)N(C(C)(C)C(=O)O)S(=O)(=O)c2c1sc(-c1ncco1)c2C)OC(C)C [Compound I-45, (R)-2-(4-(2-(5-fluoro-2-methoxyphenyl)-2-isopropoxyethyl)-7-methyl-6-(oxazol-2-yl)-1,1-dioxido-3-oxo-3,4-dihydro-2H-thieno[2,3-e][1,2,4]thiadiazin-2-yl)-2-methylpropanoic acid]",5 to 20
6,"COc1ccccc1[C@H](CN1C(=O)N(C(C)(C)C(=O)O)S(=O)(=O)c2c1sc(-c1ncco1)c2C)OC1CCOCC1 [Compound I-46, (R)-2-(4-(2-(2-methoxyphenyl)-2-((tetrahydro-2H-pyran-4-yl)oxy)ethyl)-7-methyl-6-(oxazol-2-yl)-1,1-dioxido-3-oxo-3,4-dihydro-2H-thieno[2,3-e][1,2,4]thiadiazin-2-yl)-2-methylpropanoic acid]",5 to 20
7,"COc1ccccc1[C@H](CN1C(=O)N(C(C)(C)C(=O)O)S(=O)(=O)c2c1sc(-c1ncco1)c2C)O[C@H]1CC[C@@H](O)CC1 [Compound I-47, 2-(4-((R)-2-(((1s,4S)-4-hydroxycyclohexyl)oxy)-2-(2-methoxyphenyl)ethyl)-7-methyl-6-(oxazol-2-yl)-1,1-dioxido-3-oxo-3,4-dihydro-2H-thieno[2,3-e][1,2,4]thiadiazin-2-yl)-2-methylpropanoic acid]",5 to 20
8,"CCOC(=O)c1sc2c(c1C)S(=O)(=O)N(C(C)(C)C(=O)OCc1ccccc1)C(=O)N2C[C@H](OC(C)C)c1cc(F)ccc1OC [Compound I-48, (R)-ethyl 2-(1-(benzyloxy)-2-methyl-1-oxopropan-2-yl)-4-(2-(5-fluoro-2-methoxyphenyl)-2-isopropoxyethyl)-7-methyl-3-oxo-3,4-dihydro-2H-thieno[2,3-e][1,2,4]thiadiazine-6-carboxylate 1,1-dioxide]",5 to 20
9,"COc1ccccc1CCc1nn(CC(=O)O)c(=O)c2c(C)c(-c3ncco3)sc12 [Compound I-49, 2-(7-(2-methoxyphenethyl)-3-methyl-2-(oxazol-2-yl)-4-oxothieno[2,3-d]pyridazin-5(4H)-yl)acetic acid]",≥ 50

# System: ACC2
# Assay: not given
# Details: ACC2 isolated from rat, mouse, monkey and human; cited from earlier work
row,Molecule,IC50 [µM]
1,O=C(c1c2ccccc2cc2ccccc12)N1CCC(N2CCC[C@@H](C(=O)N3CCOCC3)C2)CC1 [CP-640186],~0.06
